Reference: US20240197712A1, “TGF-BETA INHIBITION FOR IMMUNODEFICIENCY VIRUS REACTIVATION FROM LATENCY, ENHANCEMENT OF IMMUNODEFICIENCY VIRUS-SPECIFIC RESPONSES AND IMMUNODEFICIENCY VIRUS CURE” (Northwestern University, priority 2022, published 2024)

Assays:
Type in all cases: in vivo, rhesus macaques
TGF-β = test: Total TGF-β in plasma by ELISA; conditions: baseline vs W1/2
From the text: FIGS. 16A-16B. […] (FIG. 16A) The concentration of total TGF-β in the plasma before and after galunisertib as detected by ELISA is shown. Wilcoxon matched-pairs test was used to compare BL with W1/2 data, Significant p-value of α<0.05 (*) is shown. (FIG. 16B) No correlation is present between the concentration of TGF-β before treatment in blood and the change in Gut-SUVTot in each animal after galunisertib treatment (p=0.199; Person R=0.304).

[1] = test system: SIVmac239 gag and env peptides; test: Anti-SIV T cell responses, intracellular cytokine staining; conditions: before vs after treatment
Description: Frozen PBMC collected right before the first galunisertib administration and right after were thawed in AIM V medium (Thermo Fisher) plated on a plate pre-coated with 2.5 μg/ml goat anti mouse (GAM) IgGs and cross linked with 10 μg/ml anti-CD28 and anti-CD49d antibodies (Sigma Aldrich). Cells were stimulated either with SIVMAC239 GAG peptide pool (2 μg/ml) or with SIVMAC239 ENV peptide pool (2 μg/ml AIDS reagents program, Division of AIDS, NIAID, NIH) or the same volume of DMSO as baseline control. Pooled cells stimulated with 1 μg/ml PMA/Ionomycin were used a positive activation control. One hour later 10 μg/ml BFA and monensin (GolgiStop, BD Biosciences) were added to each well. After 5 hours, cells were transferred to a FACS plate and stained with the LIVE/DEAD Aqua viability dye (Thermo Fisher Scientific) and antibodies against cell surface and cytokines (Table 2).

T and NK cells = test: High parameter flow cytometry of PBMC T and NK cells
From the text: Colorectal biopsy tissues were isolated by enzymatic digestion while LN biopsies were passed through a 70 μm cell strainer as described in (110). FlowJo vs 10.8 was use for both classical and high-dimensional analysis. PeacoQC, FlowtSNE and FlowSOM plug-ins were used with default settings. SwiftReg was used for normalization (113).
Peripheral blood mononuclear cells (PBMCs) collected from 8 macaques at 7 time points spanning Cycle 1 to Cycle 4 (refer to Table 5) were employed for high-parameter flow cytometry staining. Cells from before and after cycle 1 and at the end of cycle 3 were used for Tfh/Treg assay. In both cases, cell fixation and permeabilization for intracellular staining were carried out using the FoxP3 Staining Buffer set (Thermo Fisher Scientific, Carlsbad, CA). The high-dimensional panel consisted of antibodies outlined in Table 4, catering to requirements for surface and intracellular staining, as well as viability assessment. Each antibody was individually titrated to ensure optimal staining conditions. Data acquisition was performed using the FACSymphony A5.2 Spectral Analyzer. Following data collection, spectral compensation was implemented utilizing FlowJo™ v10.8 Software (BD Life Sciences). 60,000 live singlet lymphocytes from each of samples was downsampled to prevent disproportionate representation by samples with higher cell counts, ensuring balanced subsequent analysis. To mitigate batch effects, we utilized the swiftReg Neighbor-Dependent Cluster Registration (NDCR) method available within the SWIFT package(112). This method effectively addresses batch variations while preserving the inherent biological diversity. […] Furthermore, we implemented the Peak Extraction and Cleaning Oriented Quality Control (PeacoQC) procedure (138) in FlowJo™ v10.8 to eliminate low-quality events arising from potential issues like clogs, speed fluctuations, and slow sample uptake. FlowSOM FlowJo plugin was employed for automated cell population identification, preceded by the utilization of Phenograph to obtain optimal cluster numbers for dimensional reduction, for the merged data of All Time points and BC1 vs AC4 merged data respectively. The Supplementary FIG. 29A heatmap illustrates the median fluorescence intensity (MFI) values for all markers across all clusters. A tSNE plot, generated in FlowJo™ using the markers employed in the FlowSOM analysis, is presented, with coloring based on the FlowSOM clustering or two specific time points, BC1 vs AC4 in FIG. 4G.

Compound: Cc1cccc(-c2nn3c(c2-c2ccnc4ccc(C(N)=O)cc24)CCC3)n1 [galunisertib, Galunisertib]
- levels of TGF-β in blood after treatment (TGF-β): increases in the levels of TGF-β
- frequency of cells producing multiple cytokines [1]: no increase
- frequency of IFN-γ producing CD4 and CD8 T cells ([1]; gag and env peptides stimulation): significant increase
- proliferation marker Ki67 in NK cells (T and NK cells; AC1 vs BC1): initial increase
- T-Bet in CD8+ T cells (T and NK cells; BC2 vs BC1): significant decrease
- systemic immune activation (T and NK cells; Example 5, end of 1st cycle, PBMC RNAseq, CD69 and CD38 on T cells): did non induce systemic immune activation
- effector phenotype in T cells (CD95, CD62L) (T and NK cells; Example 5, preliminary data): increased expression of CD95
- TCF1 expression in CD4+ T cells (T and NK cells; PBMC, throughout treatment): profound consistent decrease
- expression of CD95 in CD4+ T cells (T and NK cells; PBMC, throughout treatment): substantial increase
- CD62L in CD4+ T cells (T and NK cells; after the first cycle, reverted to baseline later): small decrease
- expression of activation markers CD69, HLA-DR and Ki67 in CD4+ T cells (T and NK cells; exception: HLA-DR increase at beginning of cycle 2): remained mostly unchanged
- CCR7 expression in memory CD8+ T cells (T and NK cells; rhesus monkey, in vivo): sustained significant increase
- CD16 expression within NKG2A+CD8+ NK cells (T and NK cells; rhesus monkey, in vivo): pronounced increase
- CD95 expression in CD8+ T cells (T and NK cells; rhesus monkey, in vivo): No significant increase
- TCF1 downregulation in CD8+ T cells (T and NK cells; rhesus monkey, in vivo): reached significance only at the end of the treatment
- expression of CCR7 or CD28 within CD95+CD4+ T cells (T and NK cells; rhesus monkey, in vivo): no change
- expression of PD1 on CD4+ and CD8+ T cells (T and NK cells; rhesus monkey, in vivo): either did not change or was slightly downregulated
- frequency of naïve (CD95−) cells within CD4+ T cells (T and NK cells; rhesus monkey, in vivo): decreased
- gut homing receptor integrin α4β7 in CD4+ T cells (T and NK cells; rhesus monkey, in vivo): downregulation
- levels of T-bet in CD4+ T cells (T and NK cells; rhesus monkey, in vivo): did not change significantly
- levels of granzyme B in CD4+ T cells (T and NK cells; rhesus monkey, in vivo): decrease
